# In patent US12371454B2, “Cyclic peptide compound having Kras inhibitory action” (priority 2019, dated 2025):
# Starred links: 1 amine or outer side, 2 acyl side, 3 side chain; linkers in the order of their positions; H or OH if unused. Positions of bridges follow the written chain, without caps; N, C: chain ends. Non-standard residues stand in square brackets, D forms with d. Residues, ends and D or L forms follow the SMILES beside them. *: point of attachment. hPhe(3,5-F2-4-CF3) = N[C@@H](CCc1cc(F)c(C(F)(F)F)c(F)c1)C(=O)O; hPhe(3-Cl-4-CF3) = N[C@@H](CCc1ccc(C(F)(F)F)c(Cl)c1)C(=O)O; hPhe(3-F,4-CF3) = N[C@@H](CCc1ccc(C(F)(F)F)c(F)c1)C(=O)O; NMePhe(4-CF3) = CN[C@@H](Cc1ccc(C(F)(F)F)cc1)C(=O)O; 3Oxa8azabicyclo(3.2.1)octane = C1CC2COCC1N2*; NMeAbu(4,4,4-F3) = CN[C@@H](CC(F)(F)F)C(=O)O; NMePhe(4-Me) = CN[C@@H](Cc1ccc(C)cc1)C(=O)O; NMePhe(4-F) = CN[C@@H](Cc1ccc(F)cc1)C(=O)O; NMePhe(2-Me) = CN[C@@H](Cc1ccccc1C)C(=O)O; NMedβ3hAla = C[C@H](CC(=O)[*:2])N(C)[*:1]; NMeGly(cPent) = CN[C@H](C(=O)O)C1CCCC1; NMeCha = CN[C@@H](CC1CCCCC1)C(=O)O; NMehLeu = CN[C@@H](CCC(C)C)C(=O)O; NMeChg = CN[C@H](C(=O)O)C1CCCCC1; NMeI = CC[C@H](C)[C@H](NC)C(=O)O; Gly(cBu) = N[C@H](C(=O)O)C1CCC1; NMeD = CN[C@@H](CC(=O)O)C(=O)O; NMeL = CN[C@@H](CC(C)C)C(=O)O; NMeV = CN[C@H](C(=O)O)C(C)C; d(β3hA) = C[C@@H](N)CC(=O)O; NMeAbu = CC[C@H](NC)C(=O)O; NMeS = CN[C@@H](CO)C(=O)O; Morpholide = C1CN(*)CCO1; NMeA = CN[C@@H](C)C(=O)O; Piperidide = C1CCN(*)CC1; Pyrrolidide = C1CCN(*)C1; Ac5c = NC1(C(=O)O)CCCC1; Aze = O=C(O)[C@@H]1CCN1; Ac4c = NC1(C(=O)O)CCC1; Sar = CNCC(=O)O; Propyl = CCC*
# Tests used:
# [1] = system: Human pancreatic cancer cell line AsPC-1; test: Measurement of AsPC-1 cell growth inhibition (AsPC-1 CGI); type: cell-based; conditions: 96 h
# How it was run: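 AsPC-1 cells in 15% FBS RPMI-1640 were exposed to test compound for 96 hours at 37° C, with CellTiter-Glo as endpoint.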
# [2] = target: T1, Kras and SOS1 (biotin-tagged human Kras loaded with GDP, His-tagged human SOS1) (Homo sapiens, UniProt P01116, G12D); test: Protein-protein interaction inhibition between Kras and SOS1 (KrasGl2D-SOS PPI) using AlphaScreen; type: binding; conditions: AlphaScreen; biotin-tagged human Kras loaded with GDP, His-tagged human SOS1; read-out: KRAS G12D-SOS PPI IC50
# T1 construct: made in house; host or cells: E. coli (stated for Kras only)
# T1 sequence (P01116 1-188 isoform P01116-2 G12D): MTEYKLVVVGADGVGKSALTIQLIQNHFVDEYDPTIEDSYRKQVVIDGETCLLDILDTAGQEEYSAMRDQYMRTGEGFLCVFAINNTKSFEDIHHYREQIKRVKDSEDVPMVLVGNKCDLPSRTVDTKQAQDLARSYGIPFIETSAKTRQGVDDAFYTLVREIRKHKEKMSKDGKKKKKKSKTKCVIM
# How it was run: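 Kras was produced in E. coli, purified, then loaded with GDP. It was paired via streptavidin acceptor beads with His-SOS1 held on nickel donor beads, and proximity signal at 520-620 nm was read after 680 nm illumination.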
SMILES,IC50 [1] [nM],IC50 [2] [nM]
"CC[C@H](C)[C@@H]1NC(=O)[C@H](CC(F)(F)F)N(C)C(=O)C[C@@H](C(=O)N2C3CCC2COC3)N(C)C(=O)[C@H](C2CCCCC2)N(C)C(=O)C2(CCCC2)NC(=O)[C@@H]2CCCN2C(=O)[C@H](CCc2ccc(C(F)(F)F)c(Cl)c2)NC(=O)CN(C)C(=O)[C@H](Cc2ccc(C)cc2)N(C)C(=O)CN(C)C(=O)CN(C)C1=O [Compound 683] ([NMeAbu(4,4,4-F3)]I[Sar][Sar][NMePhe(4-Me)][Sar][hPhe(3-Cl-4-CF3)]P[Ac5c][NMeChg][NMeD]-{3Oxa8azabicyclo(3.2.1)octane}; lactam N-11)",50 to 100,0.61
CCCOC[C@H]1C(=O)N[C@@H]([C@@H](C)CC)C(=O)N(C)CC(=O)N(C)CC(=O)N(C)[C@@H](CC2CCCCC2)C(=O)N(C)CC(=O)N[C@@H](CCc2ccc(C(F)(F)F)c(Cl)c2)C(=O)N2CCC[C@H]2C(=O)NC2(CCCC2)C(=O)N(C)[C@@H](C2CCCCC2)C(=O)N(C)[C@H](C(=O)N2CCCCC2)CC(=O)N1C [Compound 1668] ([NMeS](Propyl)I[Sar][Sar][NMeCha][Sar][hPhe(3-Cl-4-CF3)]P[Ac5c][NMeChg][NMeD]-Piperidide; lactam N-11),50 to 100,0.85
CC[C@H](C)[C@@H]1NC(=O)[C@H](CC(C)C)N(C)C(=O)C[C@@H](C(=O)N(C)C)N(C)C(=O)[C@H]([C@@H](C)CC)N(C)C(=O)C2(CCCC2)NC(=O)[C@H](Cc2ccc(F)cc2)N(C)C(=O)[C@H](CCc2ccc(C(F)(F)F)c(Cl)c2)NC(=O)CN(C)C(=O)[C@H](Cc2ccc(C)cc2)N(C)C(=O)[C@@H]2CCN2C(=O)[C@H](C)N(C)C1=O [Compound 385] ([NMeL]I[NMeA][Aze][NMePhe(4-Me)][Sar][hPhe(3-Cl-4-CF3)][NMePhe(4-F)][Ac5c][NMeI][NMeD]-NMe2; lactam N-11),50 to 100,4.7
"CC[C@H](C)[C@@H]1NC(=O)[C@H](CC(C)C)N(C)C(=O)C[C@@H](C(=O)N2CCOCC2)N(C)C(=O)[C@H]([C@@H](C)CC)N(C)C(=O)C2(CCCC2)NC(=O)[C@@H]2CCCN2C(=O)[C@H](CCc2ccc(C(F)(F)F)c(F)c2)NC(=O)CN(C)C(=O)[C@H](C2CCCC2)N(C)C(=O)[C@@H]2CCN2C(=O)[C@H](C)N(C)C1=O [Compound 1098] ([NMeL]I[NMeA][Aze][NMeGly(cPent)][Sar][hPhe(3-F,4-CF3)]P[Ac5c][NMeI][NMeD]-Morpholide; lactam N-11)",20 to 50,5.6
CC[C@H](C)[C@@H]1NC(=O)[C@H](CC(C)C)N(C)C(=O)C[C@@H](C(=O)N2CCCCC2)N(C)C(=O)[C@H](C2CCCCC2)N(C)C(=O)C2(CCCC2)NC(=O)[C@@H]2CCCN2C(=O)[C@H](CCc2ccc(C(F)(F)F)c(Cl)c2)NC(=O)CN(C)C(=O)[C@H](C(C)C)N(C)C(=O)CN(C)C(=O)CN(C)C1=O [Compound 1829] ([NMeL]I[Sar][Sar][NMeV][Sar][hPhe(3-Cl-4-CF3)]P[Ac5c][NMeChg][NMeD]-Piperidide; lactam N-11),100 to 500,1.5
CC[C@H](C)[C@@H]1NC(=O)[C@H](CC)N(C)C(=O)C[C@@H](C(=O)N2CCCC2)N(C)C(=O)[C@H](C2CCCCC2)N(C)C(=O)C2(CCCC2)NC(=O)[C@@H]2CCCN2C(=O)[C@H](CCc2ccc(C(F)(F)F)c(Cl)c2)NC(=O)CN(C)C(=O)[C@H](Cc2ccc(C)cc2)N(C)C(=O)CN(C)C(=O)CN(C)C1=O [Compound 1905] ([NMeAbu]I[Sar][Sar][NMePhe(4-Me)][Sar][hPhe(3-Cl-4-CF3)]P[Ac5c][NMeChg][NMeD]-Pyrrolidide; lactam N-11),20 to 50,0.33
CC[C@H](C)[C@@H]1NC(=O)[C@H](CC(C)C)N(C)C(=O)C[C@@H](C(=O)N(C)C)N(C)C(=O)[C@H]([C@@H](C)CC)N(C)C(=O)C2(CCCC2)NC(=O)[C@H](Cc2ccccc2C)N(C)C(=O)[C@H](CCc2ccc(C(F)(F)F)c(Cl)c2)NC(=O)CN(C)C(=O)[C@H](Cc2ccc(C)cc2)N(C)C(=O)[C@@H]2CCN2C(=O)[C@H](C)N(C)C1=O [Compound 1924] ([NMeL]I[NMeA][Aze][NMePhe(4-Me)][Sar][hPhe(3-Cl-4-CF3)][NMePhe(2-Me)][Ac5c][NMeI][NMeD]-NMe2; lactam N-11),100 to 500,5.1
"CC[C@H](C)[C@@H]1NC(=O)[C@H](CC(F)(F)F)N(C)C(=O)C[C@@H](C(=O)N2CCCC2)N(C)C(=O)[C@H](C2CCCCC2)N(C)C(=O)C2(CCCC2)NC(=O)[C@@H]2CCCN2C(=O)[C@H](CCc2cc(F)c(C(F)(F)F)c(F)c2)NC(=O)CN(C)C(=O)[C@H](Cc2ccc(C)cc2)N(C)C(=O)CN(C)C(=O)CN(C)C1=O [Compound 1278] ([NMeAbu(4,4,4-F3)]I[Sar][Sar][NMePhe(4-Me)][Sar][hPhe(3,5-F2-4-CF3)]P[Ac5c][NMeChg][NMeD]-Pyrrolidide; lactam N-11)",20 to 50,0.65
CCCOC[C@H]1C(=O)N(C)CC(=O)N[C@@H](CCc2ccc(C(F)(F)F)c(Cl)c2)C(=O)N2CCC[C@H]2C(=O)NC2(CCCC2)C(=O)N(C)[C@@H](C2CCCCC2)C(=O)N(C)[C@H](C(=O)N2C3CCC2COC3)CC(=O)N(C)[C@@H](CC)C(=O)N[C@@H]([C@@H](C)CC)C(=O)N(C)CC(=O)N(C)CC(=O)N1C [Compound 1956] ([NMeAbu]I[Sar][Sar][NMeS](Propyl)[Sar][hPhe(3-Cl-4-CF3)]P[Ac5c][NMeChg][NMeD]-{3Oxa8azabicyclo(3.2.1)octane}; lactam N-11),100 to 500,0.76
CC[C@H](C)[C@@H]1NC(=O)[C@H](CC(C)C)N(C)C(=O)C[C@@H](C(=O)N2CCCC2)N(C)C(=O)[C@H](C2CCCCC2)N(C)C(=O)C2(CCCC2)NC(=O)[C@@H]2CCCN2C(=O)[C@H](CCc2ccc(C(F)(F)F)c(Cl)c2)NC(=O)CN(C)C(=O)[C@H](CC2CCCCC2)N(C)C(=O)CN(C)C(=O)CN(C)C1=O [Compound 1757] ([NMeL]I[Sar][Sar][NMeCha][Sar][hPhe(3-Cl-4-CF3)]P[Ac5c][NMeChg][NMeD]-Pyrrolidide; lactam N-11),20 to 50,0.43
CC[C@H](C)[C@@H]1NC(=O)[C@H](CC(C)C)N(C)C(=O)C[C@@H](C(=O)N2C3CCC2COC3)N(C)C(=O)[C@H](C2CCCCC2)N(C)C(=O)C2(CCC2)NC(=O)[C@@H]2CCCN2C(=O)[C@H](CCc2ccc(C(F)(F)F)c(Cl)c2)NC(=O)CN(C)C(=O)[C@H](CC2CCCCC2)N(C)C(=O)CN(C)C(=O)CN(C)C1=O [Compound 1936] ([NMeL]I[Sar][Sar][NMeCha][Sar][hPhe(3-Cl-4-CF3)]P[Ac4c][NMeChg][NMeD]-{3Oxa8azabicyclo(3.2.1)octane}; lactam N-11),20 to 50,0.68
"CC[C@H](C)[C@@H]1NC(=O)[C@H](CC(C)C)N(C)C(=O)C[C@@H](C(=O)N2CCCC2)N(C)C(=O)[C@H](C(C)C)N(C)C(=O)C2(CCCC2)NC(=O)[C@@H]2CCCN2C(=O)[C@H](CCc2ccc(C(F)(F)F)c(F)c2)NC(=O)CN(C)C(=O)[C@H](CC2CCCCC2)N(C)C(=O)CN(C)C(=O)CN(C)C1=O [Compound 804] ([NMeL]I[Sar][Sar][NMeCha][Sar][hPhe(3-F,4-CF3)]P[Ac5c][NMeV][NMeD]-Pyrrolidide; lactam N-11)",100 to 500,0.99
CC[C@H](C)[C@@H]1NC(=O)[C@H](CC(C)C)N(C)C(=O)C[C@@H](C)N(C)C(=O)[C@H](C(C)C)N(C)C(=O)C2(CCCC2)NC(=O)[C@@H]2CCCN2C(=O)[C@H](CCc2ccc(C(F)(F)F)c(Cl)c2)NC(=O)CN(C)C(=O)[C@H](Cc2ccc(C(F)(F)F)cc2)N(C)C(=O)CN(C)C(=O)CN(C)C1=O [Compound 1617] (cyclo([Ac5c][NMeV][NMedβ3hAla][NMeL]I[Sar][Sar][NMePhe(4-CF3)][Sar][hPhe(3-Cl-4-CF3)]P)),50 to 100,2.7
CC[C@H](C)[C@@H]1NC(=O)[C@H](CC(C)C)N(C)C(=O)C[C@@H](C)NC(=O)[C@H](C2CCCC2)N(C)C(=O)C2(CCCC2)NC(=O)[C@@H]2CCCN2C(=O)[C@H](CCc2ccc(C(F)(F)F)c(Cl)c2)NC(=O)CN(C)C(=O)[C@H](CC2CCCCC2)N(C)C(=O)CN(C)C(=O)CN(C)C1=O [Compound 122] (cyclo([Ac5c][NMeGly(cPent)][d(β3hA)][NMeL]I[Sar][Sar][NMeCha][Sar][hPhe(3-Cl-4-CF3)]P)),100 to 500,8.6
CC[C@H](C)[C@@H]1NC(=O)[C@H](CC)N(C)C(=O)C[C@@H](C(=O)N2CCOCC2)N(C)C(=O)[C@H](C2CCCCC2)N(C)C(=O)C2(CCCC2)NC(=O)[C@@H]2CCCN2C(=O)[C@H](CCc2ccc(C(F)(F)F)c(Cl)c2)NC(=O)CN(C)C(=O)[C@H](CC2CCCCC2)N(C)C(=O)CN(C)C(=O)CN(C)C1=O [Compound 1915] ([NMeAbu]I[Sar][Sar][NMeCha][Sar][hPhe(3-Cl-4-CF3)]P[Ac5c][NMeChg][NMeD]-Morpholide; lactam N-11),50 to 100,0.38
CC[C@H](C)[C@@H]1NC(=O)[C@H](CC(C)C)N(C)C(=O)C[C@@H](C(=O)N2CCCCC2)N(C)C(=O)[C@H](C(C)C)N(C)C(=O)C2(CCCC2)NC(=O)[C@@H]2CCCN2C(=O)[C@H](CCc2ccc(C(F)(F)F)c(Cl)c2)NC(=O)CN(C)C(=O)[C@H](CCC(C)C)N(C)C(=O)[C@@H]2CCN2C(=O)[C@H](C)N(C)C1=O [Compound 1709] ([NMeL]I[NMeA][Aze][NMehLeu][Sar][hPhe(3-Cl-4-CF3)]P[Ac5c][NMeV][NMeD]-Piperidide; lactam N-11),100 to 500,10
CC(C)C[C@H]1C(=O)N[C@@H](C2CCC2)C(=O)N(C)CC(=O)N(C)CC(=O)N(C)[C@@H](CC2CCCCC2)C(=O)N(C)CC(=O)N[C@@H](CCc2ccc(C(F)(F)F)c(Cl)c2)C(=O)N2CCC[C@H]2C(=O)NC2(CCCC2)C(=O)N(C)[C@@H](C2CCCCC2)C(=O)N(C)[C@H](C(=O)N2CCCC2)CC(=O)N1C [Compound 1988] ([NMeL][Gly(cBu)][Sar][Sar][NMeCha][Sar][hPhe(3-Cl-4-CF3)]P[Ac5c][NMeChg][NMeD]-Pyrrolidide; lactam N-11),50 to 100,0.69
